Results published in publication PMC7835237, “Dual mechanism β-amino acid polymers promoting cell adhesion” (Nature Communications, 2021).

Assays:
[1] = system: MC3T3-E1 preosteoblast cells; test: Cell spreading area on modified surfaces (immunofluorescence analysis of cell morphology); format: cell-based, mouse
Method: The degree of cell spreading on a functionalized glass slide was measured by immunofluorescence analysis. After culture medium was removed, the slide was washed with PBS and then cells on the slide were fixed with 4% paraformaldehyde for 20 min. The slide was washed with PBS thrice and incubated for 5 min with 0.4% triton-X in PBS. Subsequently, the slide was washed with PBS thrice, followed by blocking with 3% bovine serum albumin (BSA) in PBS for 1 h at rt and then incubated with Alexa Fluor-555-conjugated anti-vinculin antibody (1:300 in PBS) overnight at 4 °C. The slide was washed with PBS thrice and incubated for 2 h with FITC-phalloidin (1:200 in PBS) and 4′-6-diamidino-2-phenylindole (DAPI) (5 μg/mL) for 10 min. The slide was washed with PBS thrice and its fluorescent images were collected on a confocal microscope (Nikon A1R, Japan).

[2] = system: MC3T3-E1 preosteoblast cells; test: Cell adhesion in a serum-free environment with enzyme-pretreated cells; format: cell-based, mouse; parameters: unit not given here; details: serum-free medium, 1 day
Method: Cells were detached and washed thrice with a serum-free medium. In order to examine the impact of cell membrane-tethered proteins on cell adhesion in a serum-free environment, cells were suspended and incubated at 37 °C for 20 min in 3 mL serum-free α-MEM medium that contains 0.307 U/mL plasmin, 10 U/mL collagenase (types I and II), 2 U/mL heparinase (types I, II, and III), or 10 U/mL hyaluronidase, respectively. The protease-treated cells were washed and suspended in a serum-free α-MEM to a final concentration of 1.5 × 10^5 cells/mL. An aliquot of 10 μL this cell suspension was added to each individual well (formed by a 50-well silicon coverslip on the top of a glass slide) that has bottom surface modified with DM50CO50, RGD, or KRSR, respectively, and then the slide was placed in a petri dish for incubation at 37 °C for 2 h for cell attachment. Then additional fresh medium was added into the petri dish to immerse the entire slide and the whole dish was incubated for 1 day. After removing the medium, cells were stained with a live/dead staining solution and the fluorescent images were captured under a microscope (Nikon Eclipse Ti-S, Japan) at different locations of each well. The collected images were analyzed using Image-pro plus software.

[3] = Control: untreated cells, value 1 of n = 9
[4] = Control: untreated cells, value 2 of n = 9
[5] = Control: untreated cells, value 3 of n = 9
[6] = Control: untreated cells, value 4 of n = 9
[7] = Control: untreated cells, value 5 of n = 9
[8] = Control: untreated cells, value 6 of n = 9
[9] = Control: untreated cells, value 7 of n = 9
[10] = Control: untreated cells, value 8 of n = 9
[11] = Control: untreated cells, value 9 of n = 9
[12] = cells pretreated with Collagenase 10 U/mL, value 1 of n = 9
[13] = cells pretreated with Collagenase 10 U/mL, value 2 of n = 9
[14] = cells pretreated with Collagenase 10 U/mL, value 3 of n = 9
[15] = cells pretreated with Collagenase 10 U/mL, value 4 of n = 9
[16] = cells pretreated with Collagenase 10 U/mL, value 5 of n = 9
[17] = cells pretreated with Collagenase 10 U/mL, value 6 of n = 9
[18] = cells pretreated with Collagenase 10 U/mL, value 7 of n = 9
[19] = cells pretreated with Collagenase 10 U/mL, value 8 of n = 9
[20] = cells pretreated with Collagenase 10 U/mL, value 9 of n = 9
[21] = cells pretreated with Heparinase 2 U/mL, value 1 of n = 9
[22] = cells pretreated with Heparinase 2 U/mL, value 2 of n = 9
[23] = cells pretreated with Heparinase 2 U/mL, value 3 of n = 9
[24] = cells pretreated with Heparinase 2 U/mL, value 4 of n = 9
[25] = cells pretreated with Heparinase 2 U/mL, value 5 of n = 9
[26] = cells pretreated with Heparinase 2 U/mL, value 6 of n = 9
[27] = cells pretreated with Heparinase 2 U/mL, value 7 of n = 9
[28] = cells pretreated with Heparinase 2 U/mL, value 8 of n = 9
[29] = cells pretreated with Heparinase 2 U/mL, value 9 of n = 9
[30] = cells pretreated with Hyaluronidase 10 U/mL, value 1 of n = 9
[31] = cells pretreated with Hyaluronidase 10 U/mL, value 2 of n = 9
[32] = cells pretreated with Hyaluronidase 10 U/mL, value 3 of n = 9
[33] = cells pretreated with Hyaluronidase 10 U/mL, value 4 of n = 9
[34] = cells pretreated with Hyaluronidase 10 U/mL, value 5 of n = 9
[35] = cells pretreated with Hyaluronidase 10 U/mL, value 6 of n = 9
[36] = cells pretreated with Hyaluronidase 10 U/mL, value 7 of n = 9
[37] = cells pretreated with Hyaluronidase 10 U/mL, value 8 of n = 9
[38] = cells pretreated with Hyaluronidase 10 U/mL, value 9 of n = 9
[39] = cells pretreated with Plasmin 0.307 U/mL, value 1 of n = 9
[40] = cells pretreated with Plasmin 0.307 U/mL, value 2 of n = 9
[41] = cells pretreated with Plasmin 0.307 U/mL, value 3 of n = 9
[42] = cells pretreated with Plasmin 0.307 U/mL, value 4 of n = 9
[43] = cells pretreated with Plasmin 0.307 U/mL, value 5 of n = 9
[44] = cells pretreated with Plasmin 0.307 U/mL, value 6 of n = 9
[45] = cells pretreated with Plasmin 0.307 U/mL, value 7 of n = 9
[46] = cells pretreated with Plasmin 0.307 U/mL, value 8 of n = 9
[47] = cells pretreated with Plasmin 0.307 U/mL, value 9 of n = 9

KRSRGYC
Cell area of preosteoblast cells ([1]; cultured on modified surface for 3 h, replicate 1): 2526
Cell area of preosteoblast cells ([1]; cultured on modified surface for 3 h, replicate 2): 2456
Cell area of preosteoblast cells ([1]; cultured on modified surface for 3 h, replicate 3): 2659
Cell area of preosteoblast cells ([1]; cultured on modified surface for 24 h, replicate 1): 4026
Cell area of preosteoblast cells ([1]; cultured on modified surface for 24 h, replicate 2): 4102
Cell area of preosteoblast cells ([1]; cultured on modified surface for 24 h, replicate 3): 4230
Cell density (figure 6c) [2, 3]: 96
Cell spreading area (figure 6b) [2, 3]: 2152
Cell density (figure 6c) [2, 4]: 95
Cell spreading area (figure 6b) [2, 4]: 2263
Cell density (figure 6c) [2, 5]: 98
Cell spreading area (figure 6b) [2, 5]: 2236
Cell density (figure 6c) [2, 6]: 96
Cell spreading area (figure 6b) [2, 6]: 2265
Cell density (figure 6c) [2, 7]: 96
Cell spreading area (figure 6b) [2, 7]: 2150
Cell density (figure 6c) [2, 8]: 90
Cell spreading area (figure 6b) [2, 8]: 2154
Cell density (figure 6c) [2, 9]: 96
Cell spreading area (figure 6b) [2, 9]: 2365
Cell density (figure 6c) [2, 10]: 89
Cell spreading area (figure 6b) [2, 10]: 2263
Cell density (figure 6c) [2, 11]: 98
Cell spreading area (figure 6b) [2, 11]: 2153
Cell density (figure 6c) [2, 12]: 92
Cell spreading area (figure 6b) [2, 12]: 2270.3
Cell density (figure 6c) [2, 13]: 92
Cell spreading area (figure 6b) [2, 13]: 2036
Cell density (figure 6c) [2, 14]: 89
Cell spreading area (figure 6b) [2, 14]: 2011.4
Cell density (figure 6c) [2, 15]: 88
Cell spreading area (figure 6b) [2, 15]: 2163
Cell density (figure 6c) [2, 16]: 95
Cell spreading area (figure 6b) [2, 16]: 2200
Cell density (figure 6c) [2, 17]: 89
Cell spreading area (figure 6b) [2, 17]: 2110.4
Cell density (figure 6c) [2, 18]: 98
Cell spreading area (figure 6b) [2, 18]: 2163
Cell density (figure 6c) [2, 19]: 90
Cell spreading area (figure 6b) [2, 19]: 2145
Cell density (figure 6c) [2, 20]: 90
Cell spreading area (figure 6b) [2, 20]: 2068
Cell density (figure 6c) [2, 21]: 83
Cell spreading area (figure 6b) [2, 21]: 1652
Cell density (figure 6c) [2, 22]: 81
Cell spreading area (figure 6b) [2, 22]: 1526.5
Cell density (figure 6c) [2, 23]: 76
Cell spreading area (figure 6b) [2, 23]: 1753
Cell density (figure 6c) [2, 24]: 75
Cell spreading area (figure 6b) [2, 24]: 1586.3
Cell density (figure 6c) [2, 25]: 82
Cell spreading area (figure 6b) [2, 25]: 1632
Cell density (figure 6c) [2, 26]: 72
Cell spreading area (figure 6b) [2, 26]: 1552.3
Cell density (figure 6c) [2, 27]: 85
Cell spreading area (figure 6b) [2, 27]: 1596.3
Cell density (figure 6c) [2, 28]: 68
Cell spreading area (figure 6b) [2, 28]: 1550
Cell density (figure 6c) [2, 29]: 83
Cell spreading area (figure 6b) [2, 29]: 1620
Cell density (figure 6c) [2, 30]: 94
Cell spreading area (figure 6b) [2, 30]: 2270.3
Cell density (figure 6c) [2, 31]: 93
Cell spreading area (figure 6b) [2, 31]: 1990.3
Cell density (figure 6c) [2, 32]: 84
Cell spreading area (figure 6b) [2, 32]: 2011.4
Cell density (figure 6c) [2, 33]: 93
Cell spreading area (figure 6b) [2, 33]: 1892.3
Cell density (figure 6c) [2, 34]: 89
Cell spreading area (figure 6b) [2, 34]: 2309.4
Cell density (figure 6c) [2, 35]: 95
Cell spreading area (figure 6b) [2, 35]: 2110.4
Cell density (figure 6c) [2, 36]: 90
Cell spreading area (figure 6b) [2, 36]: 2409.4
Cell density (figure 6c) [2, 37]: 89
Cell spreading area (figure 6b) [2, 37]: 1909
Cell density (figure 6c) [2, 38]: 90
Cell spreading area (figure 6b) [2, 38]: 1893
Cell density (figure 6c) [2, 39]: 89
Cell spreading area (figure 6b) [2, 39]: 2136
Cell density (figure 6c) [2, 40]: 90
Cell spreading area (figure 6b) [2, 40]: 2153.4
Cell density (figure 6c) [2, 41]: 91
Cell spreading area (figure 6b) [2, 41]: 2145
Cell density (figure 6c) [2, 42]: 94
Cell spreading area (figure 6b) [2, 42]: 2033
Cell density (figure 6c) [2, 43]: 93
Cell spreading area (figure 6b) [2, 43]: 2312.4
Cell density (figure 6c) [2, 44]: 78
Cell spreading area (figure 6b) [2, 44]: 2019.3
Cell density (figure 6c) [2, 45]: 90
Cell spreading area (figure 6b) [2, 45]: 2036
Cell density (figure 6c) [2, 46]: 94
Cell spreading area (figure 6b) [2, 46]: 2435.5
Cell density (figure 6c) [2, 47]: 91
Cell spreading area (figure 6b) [2, 47]: 2135
